Measurements as given in patent US5998362A, “Conjugates useful in the treatment of prostate cancer” (priority 1997, dated 1999).
Where a SMILES comes first, the peptide text is derived from it. [ ]: non-standard residue; d: D form. The star is where a group is joined. Doxorubicin(3'-N) = COc1cccc2c1C(=O)c1c(O)c3c(c(O)c1C2=O)C[C@@](O)(C(=O)CO)C[C@@H]3O[C@H]1C[C@H](N*)[C@H](O)[C@H](C)O1; Decanoyl(3,6,9-trioxa) = COCCOCCOCC(=O)*; hArg = N=C(N)NCCCC[C@H](N)C(=O)O; Chg = N[C@H](C(=O)O)C1CCCCC1; Nle = CCCC[C@H](N)C(=O)O; Glycolyl = O=C(CO)*

Columns and labels:
[1] = system: LNCap prostate tumor cells; assay: In vitro cytotoxicity of peptidyl derivatives of doxorubicin, Alamar Blue assay, LNCaP; assay type: cell-based
Procedure: (§1) The cytotoxicities of the cleaveable oligopeptide-doxorubicin conjugates, prepared as described in Examples 3-6, against a line of cells which is known to be killed by unmodified doxorubicin was assessed with an Alamar Blue assay. Specifically, cell cultures of LNCap prostate tumor cells or DuPRO cells in 96 well plates was diluted with medium containing various concentrations of a given conjugate (final plate well volume of 200 μl). The cells were incubated for 3 days at 37° C., 20 μl of Alamar Blue is added to the assay well. The cells were further incubated and the assay plates were read on a EL-310 ELISA reader at the dual wavelengths of 570 and 600 nm at 4 and 7 hours after addition of Alamar Blue. Relative percentage viability at the various concentration of conjugate tested was then calculated versus control (no conjugate) cultures. If no salt is indicated, the free conjugate was tested.

DuPRO cells = assay: In vitro cytotoxicity of peptidyl derivatives of doxorubicin, Alamar Blue assay, DuPRO; assay type: cell-based; conditions: 3 days incubation, read-out: DuPRO cell kill EC 50 (μM), value in parentheses
Procedure: as §1

free PSA = free PSA (Homo sapiens, UniProt P07288); assay: Recognition of oligopeptide-doxorubicin conjugates by free PSA (time to 50% cleavage, HPLC); assay type: biochemical; design: required for 50% cleavage of the noted oligopeptides with enzymatically active free PSA
Chain of free PSA (P07288 25-261): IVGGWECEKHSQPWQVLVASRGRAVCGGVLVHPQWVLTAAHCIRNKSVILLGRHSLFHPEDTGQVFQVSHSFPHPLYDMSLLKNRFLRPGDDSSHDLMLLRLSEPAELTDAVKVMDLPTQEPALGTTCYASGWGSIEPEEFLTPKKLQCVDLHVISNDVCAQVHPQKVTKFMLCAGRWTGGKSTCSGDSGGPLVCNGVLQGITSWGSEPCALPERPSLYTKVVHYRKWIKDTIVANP
Procedure: If no salt is indicated for the conjugate, the free conjugate was tested.

COCCOCCOCC(=O)N[C@@H](CCCCNC(=N)N)C(=O)N[C@H](C(=O)N[C@@H](CCC(N)=O)C(=O)N[C@@H](CO)C(=O)N[C@@H](CC(C)C)C(=O)N[C@H]1C[C@H](O[C@H]2C[C@](O)(C(=O)CO)Cc3c(O)c4c(c(O)c32)C(=O)c2c(OC)cccc2C4=O)O[C@@H](C)[C@H]1O)C1CCCCC1 [PEG(2)-hRChgQ-SL-DOX(3'), PEG(2)-hArgChgGln-SerLeu-DOX (3')] ({Decanoyl(3,6,9-trioxa)}-[hArg][Chg]QSL-{Doxorubicin(3'-N)})
Solubility remark in the cell kill column (INSOLUBLE / PS) ([1]; Table 4, DOX conjugates, abbreviation not defined): INSOLUBLE

N-[2-{2-(2-methoxyethoxy)ethoxy}acetyl]-Ser-Ser-Ser-Chg-Gln-Ser-Leu-Dox [PEG(2)-SSSChgQ-SL-DOX(3')]
EC50 ([1]; LNCaP cells, 72 h (3 days) incubation, Alamar Blue, read-out: LNCaP Cell Kill in 72 HRS, {48 HRS} EC 50): 10 µM
EC50 (DuPRO cells): > 100 µM
Time to 50% Substrate Cleavage by York PSA (free PSA; Table 3, DOX conjugates, buffer 50 mM Tris pH7.4, 140 mM NaCl, conjugate:PSA 100 to 1): 60 min

CCCC[C@H](NC(=O)[C@H](CO)NC(=O)[C@H](CCC(N)=O)NC(=O)[C@H](Cc1ccc(O)cc1)NC(=O)[C@H](CO)NC(=O)[C@H](CO)NC(=O)[C@H](CCCCNC(=N)N)NC(=O)CO)C(=O)N[C@H]1C[C@H](O[C@H]2C[C@](O)(C(=O)CO)Cc3c(O)c4c(c(O)c32)C(=O)c2c(OC)cccc2C4=O)O[C@@H](C)[C@H]1O [2-hydroxyacetyl-hRSSYQ-SNle-DOX(3'), 2-hydroxyacetyl-hArgSerSerTyrGln-SerNle-DOX (3')] (Glycolyl-[hArg]SSYQS[Nle]-{Doxorubicin(3'-N)})
Time to 50% Substrate Cleavage by York PSA (Min), value marked * (free PSA; Table 3, alternative PSA digestion buffer 12 mM Tris pH8.0, 25 mM NaCl, 0.5 mM CaCl2): 60 min
